Data published in publication PMC5567672 (Neuropharmacology, 2016).
Read-outs that look alike come from different tables or passages of the source.

Experiments:
mice [1] = tested on: mice
animals = details: ref Post et al. in press; cited from earlier work
patients = details: ref Post et al. in press; cited from earlier work
rodents = details: ref Jenck et al., 1997, 2000; cited from earlier work
mice [2] = experiment: Elevated plus maze; assay type: in vivo, mouse; details: for EPM activity (Table 1 summary): in vivo, mice
NOP(+/+) mice = experiment: Elevated plus maze; assay type: in vivo, mouse; details: Ro 65–6570 0.1 mg/kg, i.p.; 8–10 mice per group
NOP(−/−) mice = experiment: Elevated plus maze; assay type: in vivo, mouse; details: Ro 65–6570 0.1 mg/kg, i.p.; 8–10 mice per group
mice [3] = experiment: Forced swim test; assay type: in vivo, mouse; details: for FST activity (Table 1 summary): in vivo, mice
[4] = target: T1, NOP/G-protein interaction (NOP receptor) (Homo sapiens, UniProt P41146); details: 2015, cited from earlier work; for antagonism of N/OFQ effects, NOP/G protein / rank order of antagonist potency, NOP/G protein: against N/OFQ, ref Camarda et al., 2009, Malfacini et al.
[5] = target: T2, NOP/β-arrestin 2 interaction (NOP receptor) (Homo sapiens, UniProt P41146); details: ref Malfacini et al., 2015, cited from earlier work; for antagonism of N/OFQ stimulated NOP/β-arrestin 2 interaction: against N/OFQ
β-arrestin 2(−/−) mice [6] = details: chronic treatment, various assays; ref David et al., 2009; cited from earlier work
β-arrestin 2(−/−) mice [7] = details: ref Beaulieu et al., 2008, David et al., 2009; cited from earlier work
wild type mice = details: ref Beaulieu et al., 2008; cited from earlier work
[8] = target: T1, NOP/G-protein interaction (NOP receptor); assay type: biochemical
[9] = target: T2, NOP/β-arrestin 2 interaction (NOP receptor); experiment: BRET assay, NOP/β-arrestin 2 interaction; assay type: cell-based; details: relative to N/OFQ

T2 sequence (P41146 whole entry): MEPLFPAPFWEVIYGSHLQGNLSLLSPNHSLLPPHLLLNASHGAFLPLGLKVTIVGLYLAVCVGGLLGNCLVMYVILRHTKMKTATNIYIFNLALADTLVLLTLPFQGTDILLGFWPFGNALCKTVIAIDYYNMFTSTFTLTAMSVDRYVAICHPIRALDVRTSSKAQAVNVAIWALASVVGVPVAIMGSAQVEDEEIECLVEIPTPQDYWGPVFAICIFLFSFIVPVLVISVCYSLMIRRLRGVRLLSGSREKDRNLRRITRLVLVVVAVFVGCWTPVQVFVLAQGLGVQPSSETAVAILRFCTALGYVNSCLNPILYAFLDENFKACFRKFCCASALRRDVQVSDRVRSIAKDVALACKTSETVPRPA
T1 sequence (P41146 whole entry): as above

Compound: CC(C)[C@H]1CC[C@@H](N2CCC(N3C(=O)C(=O)c4ccccc43)CC2)CC1 [AT-090, 1-(1-(cis-4-isopropylcyclohexyl)piperidin-4-yl)indoline-2,3-dione]
- motor impairment in the rotarod test (mice [1]; AT-090 at the higher dose tested, i.p., Fig. S1): did not evoke any motor impairment

Compound: Cc1nn(-c2ncccc2CO)cc1CN1CCC2(CC1)OCC(F)(F)c1cc(Cl)sc12 [LY2940094]
- antidepressant effects, animals (animals): robust antidepressant effects
- antidepressant effects, patients (patients): robust antidepressant effects

Compound: O=C1NCN(c2ccccc2)C12CCN([C@@H]1CC[C@H]3CCCc4cccc1c43)CC2 [Ro64–6198]
- anxiolytic-like effects (rodents): produce anxiolytic-like effects

Compound: O=C1NCN(c2ccccc2)C12CCN(C1Cc3cccc4cccc1c34)CC2 (stereo not shown) [Ro 65–6570]
- time spent in and number of entries in the open arms (mice [2]; Ro 65–6570 0.01–0.1 mg/kg, i.p., 30 min prior, CD-1 mice, 12–16 per group): increased in a dose-dependent manner
- EPM activity (Table 1 summary) (mice [2]): anxiolytic
- anxiolytic-like effect, NOP(+/+) mice (NOP(+/+) mice): evident in NOP(+/+)
- anxiolytic-like effect, NOP(−/−) mice (NOP(−/−) mice): not NOP(−/−) mice
- immobility time (mice [3]; Ro 65–6570 0.1 mg/kg, i.p., 30 min prior, CD-1 mice, 11–16 per group): had no effect
- FST activity (Table 1 summary) (mice [3]): inactive
- motor impairment in the rotarod test (mice [1]; mouse, in vivo): did not produce any motor impairment

Compound: Cc1cccc2c1CC[C@H](CN1CCC(c3c(Cl)cccc3Cl)CC1)C[C@@H]2O [SB-612111, (−)-cis-1-methyl-7-[[4-(2,6-dichlorophenyl)piperidin-1-yl]methyl]-6,7,8,9-tetrahydro-5H-benzocyclohepten-5-ol]
- behavior in the EPM, per se (mice [2]; SB-612111 10 mg/kg, i.p., 30 min, CD-1 mice, 10–12 per group): did not modify per se the mouse behavior
- block of the anxiolytic-like effects of Ro 65–6570 (mice [2]; SB-612111 10 mg/kg, i.p., 30 min pre-treatment, against Ro 65–6570 0.1 mg/kg i.p., CD-1 mice): completely block
- EPM activity (Table 1 summary) (mice [2]): inactive
- FST activity (Table 1 summary) (mice [3]): antidepressant
- antagonism of N/OFQ effects, NOP/G protein [4]: antagonized N/OFQ effects showing a competitive type of interaction
- rank order of antagonist potency, NOP/G protein [4]: SB-612111 > UFP-101
- pharmacological activity, G protein (Table 1 summary), previously obtained ([4]; in vitro, G protein, ref Malfacini et al.): antagonist
- antagonism of N/OFQ stimulated NOP/β-arrestin 2 interaction [5]: able to antagonize
- pharmacological activity, β-arrestin (Table 1 summary), previously obtained ([5]; in vitro, β-arrestin): antagonist

Compound: CNCCC(Oc1ccc(C(F)(F)F)cc1)c1ccccc1 (stereo not shown) [fluoxetine]
- anxiolytic-like effects in β-arrestin 2(−/−) mice (β-arrestin 2(−/−) mice [6]): failed to induce anxiolytic-like effects
- antidepressant effects, tail suspension test (β-arrestin 2(−/−) mice [7]): did not evoke antidepressant effects

Compound: [Li] [lithium]
- antidepressant effects, tail suspension test (β-arrestin 2(−/−) mice [7]): did not evoke antidepressant effects
- latency to cross, light/dark test, wild type (wild type mice): reduces the latency to cross in wild type

Compound: [Nphe 1, Arg 14, Lys 15]N/OFQ-NH 2 [UFP-101]
- stimulation of NOP/G-protein interaction (in words) [8]: inactive
- stimulation of NOP/β-arrestin 2 interaction (in words) [9]: inactive
- EPM activity (Table 1 summary) (mice [2]): inactive
- FST activity (Table 1 summary) (mice [3]): antidepressant
- antagonism of N/OFQ effects, NOP/G protein [4]: antagonized N/OFQ effects showing a competitive type of interaction
- rank order of antagonist potency, NOP/G protein [4]: SB-612111 > UFP-101
- antagonism of N/OFQ stimulated NOP/β-arrestin 2 interaction [5]: able to antagonize
